These results are taken from patent US10221170B2, “Difluoropyrrolidines as orexin receptor modulators” (Eolas Therapeutics, Inc., priority 2014, dated 2019).

Assay [1] deals with T1, OX1 (Homo sapiens, UniProt O43613).
T1 construct: expressed in transfected cells; host or cells: CHO (CHO-OX1)
T1 sequence (O43613 1-425): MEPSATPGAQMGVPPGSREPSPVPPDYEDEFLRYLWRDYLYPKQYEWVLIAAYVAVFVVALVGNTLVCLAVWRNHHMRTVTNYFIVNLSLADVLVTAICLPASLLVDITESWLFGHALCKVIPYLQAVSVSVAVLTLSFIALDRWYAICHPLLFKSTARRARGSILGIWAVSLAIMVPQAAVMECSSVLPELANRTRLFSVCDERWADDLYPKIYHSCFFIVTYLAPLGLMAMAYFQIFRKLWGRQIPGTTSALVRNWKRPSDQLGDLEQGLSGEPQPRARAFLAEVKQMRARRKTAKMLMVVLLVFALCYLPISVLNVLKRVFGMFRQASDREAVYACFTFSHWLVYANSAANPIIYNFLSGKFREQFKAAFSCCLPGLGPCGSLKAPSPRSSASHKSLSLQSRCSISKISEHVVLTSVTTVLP
Nature of the assay: Orexin receptor cell-based functional assay (FLIPR [Ca2+]i), OX1. The following applies: CHO-OX1 cells, FLIPR calcium, EC90 of OXA. The protocol: (§1) Measurement of [Ca^2+]i using a FLIPR: CHO-OX1 or CHO-OX2 cells were seeded into black-walled clear-base 384-well plates (Corning, catalog #3712) at a density of 20,000 cells per well in F12-K medium supplemented with 10% FBS and then incubated in a 5% CO2, 37 C incubator overnight to reach 90% confluency. The cells were incubated with equal volume of calcium6 loading buffer (Molecular Devices, Inc.) containing 2.5 mM probenecid at 37° C. for 2 h, followed by test compounds (dose-range 0.1 nM-10 μM) for another 30 min. The plates were then placed into a FLIPR (Molecular Devices, Inc.) to monitor fluorescence (λ excitation 488 nm, λ emission 540 nm) before and after the addition of EC90 of [OXA].

Assay [2] concerns the target T2, OX2 (Homo sapiens, UniProt O43614).
T2 construct: expressed in transfected cells; host or cells: CHO (CHO-OX2)
T2 sequence (O43614 1-444): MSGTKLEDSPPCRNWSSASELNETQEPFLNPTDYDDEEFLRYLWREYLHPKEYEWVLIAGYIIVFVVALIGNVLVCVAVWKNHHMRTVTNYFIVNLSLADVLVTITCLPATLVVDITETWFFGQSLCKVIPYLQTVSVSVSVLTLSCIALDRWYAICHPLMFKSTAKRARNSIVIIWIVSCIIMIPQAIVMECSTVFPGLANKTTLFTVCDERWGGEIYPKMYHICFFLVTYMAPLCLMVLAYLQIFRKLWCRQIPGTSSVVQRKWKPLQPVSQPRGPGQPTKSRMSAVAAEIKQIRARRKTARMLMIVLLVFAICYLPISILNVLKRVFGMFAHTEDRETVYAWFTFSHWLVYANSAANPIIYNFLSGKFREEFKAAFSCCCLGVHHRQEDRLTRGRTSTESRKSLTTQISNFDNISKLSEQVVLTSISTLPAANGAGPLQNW
Briefly: Orexin receptor cell-based functional assay (FLIPR [Ca2+]i), OX2. The following applies: CHO-OX2 cells, FLIPR calcium, EC90 of OXA. The protocol:
as §1

One may read the IC50 as the concentration that inhibits the measured activity by half. Consider `Cc1cc(C)c(-n2nccn2)c(C(=O)N2CCC(F)(F)[C@H]2CNc2ncc(C(F)(F)F)cn2)c1` [Example 60], for which the IC50 is 16 nM in assay [1] and > 5000 nM in assay [2].

`O=C(c1cc(F)ccc1-n1nccn1)N1CCC(F)(F)[C@H]1CNc1cnc(C(F)(F)F)cn1` [Example 77]: the IC50 in assay [1] was found to be 3 nM; in assay [2], 720 nM.

With `O=C(c1cc(F)ccc1-n1nccn1)N1CCC(F)(F)[C@H]1CNc1ncc(C(F)(F)F)cn1` [Example 5], the IC50 in assay [1] is 4 nM; in assay [2] it was > 5000 nM.

On to `N#Cc1ccc(-n2nccn2)c(C(=O)N2CCC(F)(F)[C@H]2CNc2ncc(Cl)cn2)c1` [Example 66], for which the IC50 in assay [1] is 6 nM; in assay [2], > 5000 nM.

Consider `Cc1c(F)ccc(C(=O)N2CCC(F)(F)[C@H]2CNc2ncc(Cl)cn2)c1-n1nccn1` [Example 69], for which the values for the IC50 in assay [1] and in assay [2] were 21 nM and > 5000 nM, respectively.

In the case of `O=C(c1cc(F)c(F)cc1-n1nccn1)N1CCC(F)(F)[C@H]1CNc1ncc(C(F)(F)F)cn1` [Example 51], the IC50 in assay [1] was determined as 24 nM; in assay [2], 840 nM.

Take `O=C(c1ccc(F)cc1-n1nccn1)N1CCC(F)(F)[C@H]1CNc1ncc(C(F)(F)F)cn1` [Example 53]: the IC50 in assay [1] is 15 nM; in assay [2], 830 nM.

Consider `Cc1nc(C(=O)N2CCC(F)(F)[C@H]2CNc2ncc(C(F)(F)F)cn2)c(-c2ccc(F)cc2)s1` [Example 1], for which the IC50 is 1 nM in assay [1] and > 5000 nM in assay [2].

In the case of `Cc1ccc(C(=O)N2CCC(F)(F)[C@H]2CNc2ncc(C(F)(F)F)cn2)c(-n2nccn2)c1F` [Example 8], the IC50 in assay [1] is 11 nM; in assay [2], > 5000 nM.

With `O=C(c1cc(F)ccc1-c1ncccn1)N1CCC(F)(F)[C@H]1CNc1ncc(C(F)(F)F)cn1` [Example 10], the IC50 in assay [1] was 2 nM; in assay [2], > 5000 nM.

In the case of `Cc1ccc(-n2nccn2)c(C(=O)N2CCC(F)(F)[C@H]2CNc2ncc(C(F)(F)F)cn2)c1` [Example 2], the results for the IC50 in assay [1] and in assay [2] were 4 nM and > 5000 nM, respectively.

Consider `O=C(c1ccc(F)c(F)c1-n1nccn1)N1CCC(F)(F)[C@H]1CNc1ncc(C(F)(F)F)cn1` [Example 59], for which the 50% inhibitory concentration (IC50) in assay [1] was 757 nM; in assay [2] it was > 5000 nM.

Regarding `Cc1c(F)ccc(C(=O)N2CCC(F)(F)[C@H]2CNc2ncc(C(F)(F)F)cn2)c1-n1nccn1` [Example 7], the IC50 in assay [1] was 15 nM; in assay [2], > 5000 nM.

Consider `O=C(c1cc(Cl)ccc1-n1nccn1)N1CCC(F)(F)[C@H]1CNc1ncc(C(F)(F)F)cn1` [Example 54], for which the IC50 in assay [1] was 3 nM; in assay [2] it was > 5000 nM.

Turning to `Cc1ccc(-n2nccn2)c(C(=O)N2CCC(F)(F)[C@H]2CNc2ncc(Cl)cn2)c1` [Example 65], the IC50 in assay [1] was 6 nM; in assay [2], > 5000 nM.

On to `Cc1ccc(C(=O)N2CCC(F)(F)[C@H]2CNc2ncc(Cl)cn2)c(-n2nccn2)c1F` [Example 68], for which the IC50 was 105 nM in assay [1] and > 5000 nM in assay [2].

With `Cc1cccc(C(=O)N2CCC(F)(F)[C@H]2CNc2ncc(C(F)(F)F)cn2)c1-n1nccn1` [Example 55], the IC50 was 7 nM in assay [1] and > 5000 nM in assay [2].

As for `N#Cc1ccc(-n2nccn2)c(C(=O)N2CCC(F)(F)[C@H]2CNc2ncc(C(F)(F)F)cn2)c1` [Example 56], the IC50 was 14 nM in assay [1] and > 5000 nM in assay [2].

As for `O=C(c1cc(F)ccc1-n1nccn1)N1CCC(F)(F)[C@H]1COc1ccc(C(F)(F)F)cn1` [Example 74], the values for the IC50 in assay [1] and in assay [2] were 660 nM and > 5000 nM, respectively.

As to `Cc1ccc(-n2nccn2)c(C(=O)N2CCC(F)(F)[C@H]2COc2ccc(C(F)(F)F)cn2)c1` [Example 25], the IC50 is 230 nM in assay [1] and > 5000 nM in assay [2].

With `O=C(c1c(-n2nccn2)ccc(F)c1F)N1CCC(F)(F)[C@H]1CNc1ncc(C(F)(F)F)cn1` [Example 52], the IC50 in assay [1] was 6 nM; in assay [2], > 5000 nM.

On to `Cc1cccc(C(=O)N2CCC(F)(F)[C@H]2CNc2ncc(Cl)cn2)c1-n1nccn1` [Example 63], for which the values for the IC50 in assay [1] and in assay [2] were 3 nM and > 5000 nM, respectively.

Turning to `O=C(c1cccc(F)c1-n1nccn1)N1CCC(F)(F)[C@H]1CNc1ncc(C(F)(F)F)cn1` [Example 3], the IC50 in assay [1] is 4 nM; in assay [2], > 5000 nM.

Consider `O=C(c1ccc(F)c(F)c1-n1nccn1)N1CCC(F)(F)[C@H]1CNc1ncc(Cl)cn1` [Example 67], for which the IC50 is 1000 nM in assay [1] and > 5000 nM in assay [2].

On to `O=C(c1ncccc1-n1nccn1)N1CCC(F)(F)[C@H]1CNc1ncc(Cl)cn1` [Example 70], for which the IC50 in assay [1] is 20 nM; in assay [2], > 5000 nM.

For the compound `Cc1cccc(-n2nccn2)c1C(=O)N1CCC(F)(F)[C@H]1CNc1ncc(C(F)(F)F)cn1` [Example 58], the IC50 in assay [1] is 14 nM; in assay [2], > 5000 nM.

For `O=C(c1cc(F)ccc1-n1nccn1)N1CCC(F)(F)[C@H]1CNc1ncc(Cl)cn1` [Example 64], the IC50 in assay [1] is 22 nM; in assay [2] it was > 5000 nM.

As for `O=C(c1c(F)cccc1-n1nccn1)N1CCC(F)(F)[C@H]1CNc1ncc(C(F)(F)F)cn1` [Example 57], the IC50 is 3 nM in assay [1] and > 5000 nM in assay [2].
